Reference: US20250320246A1, “3-AZASTEROID COMPOUNDS FOR THE TREATMENT OF DISEASES RELATED TO MITROCHONDRIAL FUNCTION” (NZP UK LIMITED, priority 2022, published 2025)

Experiments:
Type in all cases: cell-based, human
[1] = tested on: sporadic PD patient fibroblasts; assay: Mitochondrial membrane potential (MMP, TMRM) in sporadic PD patient fibroblasts; details: Homo sapiens, Fibroblast, 24 h, 3 sporadic PD patient fibroblasts; for EC50: 8-point range 0.06 nM-300 nM; for Emax: max response with highest dose of compound (300 nM), read-out: MMP % of vehicle, top %; for activity at 60 pM: max response with lowest dose of compound (0.06 nM), read-out: MMP % of vehicle, bottom %
Description: (§1) Primary fibroblast cells were cultured continuously in Glucose based medium (high glucose (4500 mg/L) Dulbecco's Modified Eagle's medium (DMEM; Sigma-Aldrich) supplemented with 10% fetal bovine serum (Sigma-Aldrich), 100 IU/mL penicillin, 100 μg/mL streptomycin (Lonza), 1 mM sodium pyruvate (Sigma-Aldrich) and 50 μg/mL uridine (Sigma-Aldrich)). Unless otherwise stated, 24 hours prior to analysis, the Glucose based medium was exchanged for Galactose based medium (glucose-free DMEM (Gibco) with the same supplementation and in addition, 5 mM galactose (Sigma-Aldrich)). All cells were assessed between passage 6-10.
Fibroblasts were cultured and plated into a greiner black 384 μClear® plate at a concentration of 1000 cells per well in 50 μl of media volume. The plates are left overnight in an incubator to allow the fibroblasts to adhere to the plate surface. The following morning the Glucose based medium is replaced with 25 μl of Galactose based medium. The plates were then dosed with the compounds using an ECHO® 550 liquid handling system. The wells were dosed to provide an 8-point concentration range of 0.06 nM-300 nM of compound. After dosing the wells are topped up with a further 25 μl of Galactose based medium and then left in an incubator for 24 hours. After 24 hours, the medium is removed from the wells and replaced with 25 μl phenol free Minimal essential medium supplemented with 10% FBS, 1% Penicillin-streptomycin, 1% sodium pyruvate, 0.1% uridine, 1% non-essential amino acids and 1% MEM vitamins with 80 nM TMRM (Sigma) and 10 μM Hoechst Stain (Sigma). The plate is returned to the incubator for another hour after which the stain medium is removed and replaced with 25 μl Phenol free MEM. The plate is then imaged using an IN Cell high content microscope (GE Healthcare) with fields of view per well in 2 channels, Cy3 excitation 542 nm, emission 604-64 nm; and the DAPI excitation 350 nm, emission 450-55 nm at 37° C. with CO2. After imaging the plate is disposed of and the images are Data mined using the INCell developer Toolkit (GE Healthcare).
After the assays had been repeated in triplicate per line and compound the data was then inputted into Graph pad Prism 7 software suite where a dose response curve is generated using the default “[Agonist] vs response(three parameters)” equation. […]

[2] = tested on: sporadic PD patient fibroblasts; assay: Cellular ATP levels in sporadic PD patient fibroblasts, full ATP assay; details: Homo sapiens, Fibroblast, 24 h, 3 sporadic PD patient fibroblasts; for EC50: 8-point range 0.06 nM-300 nM; for Emax at 0.3 µM: max response with highest dose of compound (300 nM), read-out: ATP % of vehicle, top %; for activity at 60 pM: max response with lowest dose of compound (0.06 nM), read-out: ATP % of vehicle, bottom %
Description: as §1
The ATP protocol is generally as described in Mortiboys et al 2008. Briefly, fibroblasts were cultured as and plated into white 384 well plates at a concentration of 5000 cells per well in 50 μl of media volume. The plates are left overnight in an incubator to allow the fibroblasts to adhere to the plate surface. The following morning the Glucose based medium is replaced with 25 μl of Galactose based medium. The plates were then spiked with the compounds using a ECHO 550 liquid handling system. The wells were dosed to provide an 8-point concentration range of 0.06 nM-300 nM of compound. After dosing the wells are topped up with a further 25 μl of Galactose based medium and then left in an incubator for 24 hours. Following this incubation, the medium is removed from the plate and the wells are washed twice with sterile PBS. The wells are filled with 25 μl of Sterile PBS followed by 12.5 μl of Lysis solution from the ATPlite™ Luminescence ATP detection assay system (Perkin Elmer), including 16 cell free wells to use as blank controls. The plate is then placed on a rotary shaker for 5 mins at 700 rpm. Following the shaking 12.5 μl of ATP substrate solution (Perkin Elmer) is added to each well and a further 5 min of shaking. The plate is then placed in darkness for 10 minutes prior to reading. Using a PHERAStar® plate reader, luminescence intensity is recorded. Following the ATP assay the plates are immediately assayed for DNA content in a CyQUANT® assay.
(§2) Immediately following The ATP assay DNA content is assessed with the CyQUANT® NF Cell Proliferation Assay Kit (ThermoFisher). CyQUANT® buffer is prepared immediately before the assay and is comprised of 1 μl CyQUANT® dye per ml×1 HBSS solution. 12.5 μl of CyQUANT® buffer is added to each well. Plate left in incubator for 1 hour then read on a PHERAStar© Plate reader with excitation at 497 nm and emission at 520 nm.
ATP Quantification for each well is determined using the following formula: […]
After the assays had been repeated in triplicate per line and compound the data was then inputted into Graph pad Prism 7 software suite where a dose response curve is generated using the default “[Agonist] vs response(three parameters)” equation.
From this EC50 values, lowest response and maximal response were taken and used to calculate the Geometric mean between the 5 different lines assessed.

[3] = tested on: sporadic PD patient fibroblasts; assay: Cellular ATP levels in sporadic PD patient fibroblasts, Preliminary ATP assay; details: Homo sapiens, Fibroblast, 24 h, % of vehicle treated sPD fibroblasts, 3 sporadic PD patients; for activity at 0.1 µM: 100 nM, read-out: Average ATP Response 100 nM; for activity at 1 µM: read-out: Average ATP Response 1 μM
Description: In some cases, a preliminary ATP protocol was used in which EC50 was not determined. The preliminary ATP protocol is generally as described in Mortiboys et al 2008. Briefly, fibroblasts were cultured and plated into white, clear-bottom 384 well plates at a concentration of 4000 cells per well in 50 μl of media volume. The plates are left overnight in an incubator to allow the fibroblasts to adhere to the plate surface. The following morning the Glucose based medium is replaced with 25 μl of Galactose based medium. The cells were then dosed with 100 nM and 1 μM concentrations of the compounds using a ECHO 550 liquid handling system. After dosing the wells are topped up with a further 25 μl of Galactose based medium and then left in an incubator for 24 hours. Following this incubation, the medium is removed from the plate and the wells are washed twice with sterile PBS. The wells are filled with 20 μl of Sterile PBS followed by 10 μl of Lysis solution from the ATPlite™ Luminescence ATP detection assay system (Perkin Elmer), including 14 cell free wells to use as blank controls. The plate is then placed on a rotary shaker for 10 mins at 700 rpm. Following the shaking 10 μl of ATP substrate solution (Perkin Elmer) is added to each well and a further 5 min of shaking. The plate is then incubated in the dark for 10 minutes prior to reading. Using a FLUOstar® Omega plate reader, luminescence intensity is recorded. Following the ATP assay the plates are immediately assayed for DNA content in a CyQUANT® assay.
as §2, with “of 2” for “of 1”, “solution. 10” for “solution. 12.5”, “well. Cell plates were then incubated” for “well. Plate left in incubator”, “hour before being” for “hour then”, “a FLUOStar®” for “a PHERAStar©”
The ATP Quantification for each well is determined as set out above.

SMILES	activity at 0.1 µM [3]	activity at 1 µM [3]	other results
C[C@H](CCC(=O)O)[C@H]1CC[C@H]2[C@@H]3[C@@H](O)C[C@@H]4CN(C(=O)[C@@H](N)Cc5c[nH]c6ccccc56)CC[C@]4(C)[C@H]3CC[C@]12C [Compound 44a, N-[(2S)-2-Amino-3-(1H-indol-3-yl)propanoyl]-3-aza-7β-hydroxy-5β-cholan-24-oic acid hydrotrifluoroacetate]	–	–	EC50 [1]: 90 pM; Emax [1]: 102%; activity at 60 pM [1]: 73.5%; EC50 [2]: 230 pM; Emax at 0.3 µM [2]: 122%; activity at 60 pM [2]: 65.1%
C[C@H](CCCC(=O)O)[C@H]1CC[C@H]2[C@@H]3[C@@H](O)C[C@@H]4CN(C)CC[C@]4(C)[C@H]3CC[C@]12C [Compound 31b, N-Methyl-3-aza-7β-hydroxy-25-homo-5β-cholan-25-oic acid hydrotrifluoroacetate]	–	–	EC50 [1]: 6100 pM; Emax [1]: 95.1%; activity at 60 pM [1]: 86.5%; EC50 [2]: 266 pM; Emax at 0.3 µM [2]: 161%; activity at 60 pM [2]: 91.7%
CC(C)[C@H](N)C(=O)N1CC[C@@]2(C)[C@H](C[C@H](O)[C@@H]3[C@@H]2CC[C@]2(C)[C@@H]([C@H](C)CCCC(=O)O)CC[C@@H]32)C1 [Compound 41b, N-[(2S)-2-Amino-3-methylbutanoyl]-3-aza-7β-hydroxy-25-homo-5β-cholan-25-oic acid hydrotrifluoroacetate]	–	–	activity at 60 pM [1]: 84.6%; activity at 60 pM [2]: 78.9%
C[C@H](CCCC(=O)NC1CCOC1)[C@H]1CC[C@H]2[C@@H]3[C@@H](O)C[C@@H]4CNCC[C@]4(C)[C@H]3CC[C@]12C (stereo partly drawn) [Compound 82b, N-{(3-aza-7β-hydroxy-25-homo-5β-cholan-25-oyl)}-3-aminotetrahydrofuran]	96.2%	97.5%	–
CSCC[C@H](NC(=O)CC[C@@H](C)[C@H]1CC[C@H]2[C@@H]3[C@@H](O)C[C@@H]4CNCC[C@]4(C)[C@H]3CC[C@]12C)C(=O)O [Compound 61a, N-(3-Aza-7β-hydroxy-5β-cholan-24-oyl)-(S)-2-amino-4-(methylthio)butanoic acid]	105%	108%	–
CC(C)OC(=O)c1ccc(NC(=O)CC[C@@H](C)[C@H]2CC[C@H]3[C@@H]4[C@@H](O)C[C@@H]5CNCC[C@]5(C)[C@H]4CC[C@]23C)cc1 [Compound 63a, N-(3-Aza-7β-hydroxy-5β-cholan-24-oyl)-(isopropyl-4-aminobenzoate)]	106%	104%	–
C[C@H](CCCC(=O)N[C@@H](COC(C)(C)C)C(=O)O)[C@H]1CC[C@H]2[C@@H]3[C@@H](O)C[C@@H]4CNCC[C@]4(C)[C@H]3CC[C@]12C [Compound 71b, N-(3-Aza-7β-hydroxy-25-homo-5β-cholan-25-oyl)-(2S)-2-amino-3-[(2-methylpropan-2-yl)oxy]propanoic acid]	106%	104%	–
C[C@H](CCCC(=O)N[C@@H](Cc1ccccc1)C(=O)O)[C@H]1CC[C@H]2[C@@H]3[C@@H](O)C[C@@H]4CNCC[C@]4(C)[C@H]3CC[C@]12C [Compound 73b, N-(3-Aza-7β-hydroxy-25-homo-5β-cholan-25-oyl)-(S)-2-amino-3-phenylpropanoic acid]	99.6%	100%	–
C[C@H](CCCC(=O)N[C@@H](CC(=O)O)C(=O)O)[C@H]1CC[C@H]2[C@@H]3[C@@H](O)C[C@@H]4CNCC[C@]4(C)[C@H]3CC[C@]12C [Compound 70b, N-(3-Aza-7β-hydroxy-25-homo-5β-cholan-25-oyl)-(S)-2-aminobutanedioic acid]	106%	107%	–
C[C@H](CCC(=O)Nc1ccc(C(=O)O)cc1)[C@H]1CC[C@H]2[C@@H]3[C@@H](O)C[C@@H]4CNCC[C@]4(C)[C@H]3CC[C@]12C [Compound 60a, N-(3-Aza-7β-hydroxy-5β-cholan-24-oyl)-4-aminobenzoic acid]	102%	102%	–
C[C@H](CCC(=O)NCCS(=O)(=O)O)[C@H]1CC[C@H]2[C@@H]3[C@@H](O)C[C@@H]4CNCC[C@]4(C)[C@H]3CC[C@]12C [Compound 51a, N-(3-Aza-7β-hydroxy-5β-cholan-24-amide)-ethylsulfonic acid]	101%	107%	–
C[C@H](CCC(=O)N[C@@H](CO)C(=O)O)[C@H]1CC[C@H]2[C@@H]3[C@@H](O)C[C@@H]4CNCC[C@]4(C)[C@H]3CC[C@]12C [Compound 57a, N-(3-Aza-7β-hydroxy-5β-cholan-24-oyl)-(S)-2-amino-3-hydroxypropanoic acid]	109%	107%	–
